Results as given in US20220105147A1, “CROTON LECHLERI COMPOSITIONS FOR USE IN THE TOPICAL TREATMENT OF ACUTE BACTERIAL SKIN OR SKIN STRUCTURE INFECTION” (priority 2019, published 2022).
In brackets after ≈: the same amount, converted by molar mass.

Experiments:
[1] = system: MSSA and MRSA strains (Mupirocin-resistant and Mupirocin-susceptible); test: In vitro MIC, panel of MSSA and MRSA strains; type: cell-based, Staphylococcus aureus; conditions: for MIC: Staphylococcus aureus
Text: (§1) Measures included the minimum inhibitory concentration (MIC) which is the lowest concentration of AB-101 that prevents visible growth of the bacterium or pathogen, and minimum bactericidal concentration (MBC) which is the lowest concentration of an antibacterial agent required to kill a bacterium.

[2] = system: MSSA and MRSA strains (Mupirocin-resistant and Mupirocin-susceptible); test: In vitro MBC, panel of MSSA and MRSA strains; type: cell-based, Staphylococcus aureus; conditions: purified extract of taspine
Text: as §1

[3] = system: Enterococcus faecalis (ATCC 29212); test: Agar Well Diffusion Assay (K-B disks); type: cell-based; conditions: EFAECL; K-B disk, 25 uL, dilutions in DMSO; width of zone; one value per test date
Method: An Agar Well Diffusion Assay pilot evaluation of AB-101 BRM was conducted to seek an initial signal of the activity of AB-101 BRM against various bacteria. AB-101 BRM was tested against the following bacterial species: • Streptococcus pneumoniae (ATCC 49619) (SPNEU) Gram (+) • Streptococcus pyogenes (clinical isolate) (GABHS) Gram (+) • Enterococcus faecalis (ATCC 29212) (EFAECL) Gram (+) • Coagulase-negative Staphylococcus (clinical isolate) (CNS) Gram (+) • Escherichia coli (ATCC 25922) (EC) Gram (−) • Pseudomonas aeruginosa (ATCC 27853) (PAER) Gram (−) • Klebsiella pneumoniae (ATCC 700603) (KPNEU) Gram (−) • Staphylococcus aureus (ATCC […]) (SAUR) Gram (+) • Methicillin-resistant Staphylococcus aureus (ATCC 49476) (MRSA) Gram (+)
Isolates were subcultured the day before the Agar Well Diffusion Assay was performed. On the day of the assay, a bacterial suspension (0.08-0.12 MacFarland units) of each bacteria isolate was made in Trypticase Soy Broth (TSB), and these suspensions were used to plate a lawn of bacterial organisms on Mueller-Hinton agar or Mueller-Hinton sheep's blood agar. A control antibiotic Kirby-Bauer (K-B) disk plus K-B disks containing 25 uL of AB-101 dilutions were placed on the plates, and the plates were incubated overnight. The next day, the width of the zone of growth inhibition surrounding each K-B disk was recorded (in mm). […]

[4] = ATCC 29213 / MRSA / MSSA, strain ATCC 29213, QC control

Molecule: COc1cccc(OC)c1C(=O)N[C@@H]1C(=O)N2[C@@H]1SC(C)(C)[C@@H]2C(=O)O [Methicillin]
- MIC [1, 4]: 1 to 2 µg/mL (≈ 2.63 to 5.26 µM)

Molecule: COc1ccc2c(=O)oc3c(OC)cc(CCN(C)C)c4c(=O)oc1c2c34 [Taspine, taspine]
- activity against MSSA and MRSA (MBC) [2]: does not have activity
- activity against MSSA and MRSA (MIC) ([1]; highest concentration tested 50% relative to AB-101 = 10 μg/mL): does not have activity

Molecule: C/C(=C\C(=O)OCCCCCCCCC(=O)O)C[C@@H]1OC[C@H](C[C@@H]2O[C@H]2[C@@H](C)[C@H](C)O)[C@@H](O)[C@H]1O [Mupirocin]
- MIC [1, 4]: 0.25 to 0.5 µg/mL (≈ 0.499 to 0.999 µM)
- MIC ([1]; strain 1674606, MupirocinR, MSSA): > 256 µg/mL
- MIC ([1]; strain 1674607, MupirocinR, MRSA): > 256 µg/mL
- MIC ([1]; strain CDC 227, MupirocinS, MRSA): 0.25 to 0.5 µg/mL (≈ 0.499 to 0.999 µM)
- MIC ([1]; strain CDC 462, MupirocinS, MSSA): ≤ 0.25 µg/mL
- MIC ([1]; strain CDC 464, MupirocinS, MSSA): ≤ 0.25 µg/mL
- MIC ([1]; strain CDC 484, MupirocinS, MSSA): ≤ 0.25 µg/mL
- MIC ([1]; strain CDC 485, MupirocinS, MSSA): ≤ 0.25 µg/mL

Molecule: CC1(C)S[C@@H]2[C@H](NC(=O)[C@H](N)c3ccccc3)C(=O)N2[C@H]1C(=O)O [AMP, Ampicillin]
- Zone of Inhibition (MM) [3]: AMP 8 MM

Molecule: Gentamicin [GM]
- Zone of Inhibition (MM) [3]: GM 5 MM
